Among the data in PMC8578332 (Scientific Reports, 2021) are IC50 values, retold here.

SMILES strings stand for the structures. Where a SMILES comes first, the peptide text is derived from it. Bridges are numbered along the chain shown (N, C = ends).

The target in this experiment is human α7-containing nAChRs (Homo sapiens, UniProt P36544). Description: cell-based. Conditions: SEM. In kind it is cell-based.

The term IC50 denotes the concentration that inhibits the measured activity by half.

human α7-containing nAChRs, sequence (P36544 23-502 limits assumed): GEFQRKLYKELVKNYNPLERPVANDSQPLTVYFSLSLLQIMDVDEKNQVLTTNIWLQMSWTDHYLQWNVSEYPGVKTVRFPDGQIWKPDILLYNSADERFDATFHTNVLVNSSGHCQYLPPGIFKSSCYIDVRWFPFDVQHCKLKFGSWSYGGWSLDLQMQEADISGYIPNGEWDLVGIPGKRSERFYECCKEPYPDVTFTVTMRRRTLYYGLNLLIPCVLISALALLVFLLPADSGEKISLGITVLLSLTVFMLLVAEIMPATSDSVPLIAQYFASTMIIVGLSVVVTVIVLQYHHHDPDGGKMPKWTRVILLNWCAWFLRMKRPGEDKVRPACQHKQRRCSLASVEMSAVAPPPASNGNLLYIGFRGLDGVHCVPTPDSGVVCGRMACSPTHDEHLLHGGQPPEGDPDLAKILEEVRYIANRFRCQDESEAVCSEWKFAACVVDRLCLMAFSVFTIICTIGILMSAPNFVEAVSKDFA

Regarding `CC(C)[C@H](NC(=O)[C@@H]1CSSC[C@@H]2NC(=O)[C@@H](NC(=O)[C@@H](N)CO)CSSC[C@H](NC(=O)[C@H](C)NC(=O)[C@@H]3CCCN3C(=O)[C@H](CC(N)=O)NC(=O)[C@H](C)NC2=O)C(=O)N[C@@H](CCCNC(=N)N)C(=O)N[C@@H](Cc2c[nH]cn2)C(=O)N[C@@H](CC(N)=O)C(=O)N[C@@H](Cc2c[nH]cn2)C(=O)N2CCC[C@H]2C(=O)N1)C(N)=O` [gAusIA [∆5]] (H-SCCANPACRHNHPCV-NH2; disulfide 2-8, 3-14), the IC50 worked out at 0.59 ± 0.08 µM. In the case of `CC(C)[C@H](NC(=O)[C@@H]1CSSC[C@@H]2NC(=O)[C@@H](NC(=O)[C@@H](N)CO)CSSC[C@H](NC(=O)[C@H](C)NC(=O)[C@@H]3CCCN3C(=O)[C@H](CC(N)=O)NC(=O)[C@H](CCCNC(=N)N)NC(=O)[C@H](CO)NC2=O)C(=O)N[C@@H](CCCNC(=N)N)C(=O)N[C@@H](Cc2c[nH]cn2)C(=O)N[C@@H](CC(N)=O)C(=O)N[C@@H](Cc2c[nH]cn2)C(=O)N2CCC[C@H]2C(=O)N1)C(N)=O` [gAusIA [A4S]] (H-SCCSRNPACRHNHPCV-NH2; disulfide 2-9, 3-15), half-maximal inhibition (IC50) required 70 ± 12.9 µM. `C[C@@H]1NC(=O)[C@@H]2CSSC[C@@H](C(N)=O)NC(=O)[C@@H]3CCCN3C(=O)[C@H](Cc3c[nH]cn3)NC(=O)[C@H](CC(N)=O)NC(=O)[C@H](Cc3c[nH]cn3)NC(=O)[C@H](CCCNC(=N)N)NC(=O)[C@H](CSSC[C@H](NC(=O)[C@@H](N)CO)C(=O)N2)NC(=O)[C@H](C)NC(=O)[C@@H]2CCCN2C(=O)[C@H](CC(N)=O)NC1=O` [gAusIA [∆5 ∆16]] (H-SCCANPACRHNHPC-NH2; disulfide 2-8, 3-14) showed an IC50 of 0.241 ± 0.062 µM. In the case of `CC(C)[C@H](NC(=O)[C@@H]1CSSC[C@H](NC(=O)[C@@H](N)CO)C(=O)N[C@H]2CSSC[C@H](NC(=O)[C@H](C)NC(=O)[C@@H]3CCCN3C(=O)[C@H](CC(N)=O)NC(=O)[C@H](CCCNC(=N)N)NC(=O)[C@H](CO)NC2=O)C(=O)N[C@@H](CCCNC(=N)N)C(=O)N[C@@H](Cc2c[nH]cn2)C(=O)N[C@@H](CC(N)=O)C(=O)N[C@@H](Cc2c[nH]cn2)C(=O)N2CCC[C@H]2C(=O)N1)C(N)=O` [rAusIA [A4S]] (H-SCCSRNPACRHNHPCV-NH2; disulfide 2-15, 3-9) it was 32 ± 7.3 µM; in that of `C[C@@H]1NC(=O)[C@@H]2CSSC[C@H](NC(=O)[C@H](C)NC(=O)[C@@H]3CCCN3C(=O)[C@H](CC(N)=O)NC(=O)[C@H](CCCNC(=N)N)NC1=O)C(=O)N[C@@H](CCCNC(=N)N)C(=O)N[C@@H](Cc1c[nH]cn1)C(=O)N[C@@H](CC(N)=O)C(=O)N[C@@H](Cc1c[nH]cn1)C(=O)N1CCC[C@H]1C(=O)N[C@H](C(N)=O)CSSC[C@H](NC(=O)[C@@H](N)CO)C(=O)N2` [rAusIA [∆16]] (H-SCCARNPACRHNHPC-NH2; disulfide 2-15, 3-9), 60 ± 9.9 µM; in that of `CC(C)[C@H](NC(=O)[C@@H]1CSSC[C@H](NC(=O)[C@@H](N)CO)C(=O)N[C@H]2CSSC[C@H](NC(=O)[C@H](C)NC(=O)[C@@H]3CCCN3C(=O)[C@H](CC(N)=O)NC(=O)[C@H](CCCNC(=N)N)NC2=O)C(=O)N[C@@H](CCCNC(=N)N)C(=O)N[C@@H](Cc2c[nH]cn2)C(=O)N[C@@H](CC(N)=O)C(=O)N[C@@H](Cc2c[nH]cn2)C(=O)N2CCC[C@H]2C(=O)N1)C(N)=O` [rAusIA [∆4]] (H-SCCRNPACRHNHPCV-NH2; disulfide 2-14, 3-8), 11 ± 0.24 µM. In the case of `CC[C@H](C)[C@@H]1NC(=O)[C@H](CC(N)=O)NC(=O)[C@@H]2CCCN2C(=O)[C@H](CC(N)=O)NC(=O)[C@H](CC(N)=O)NC(=O)[C@H](C(C)C)NC(=O)[C@H](CCCNC(=N)N)NC(=O)[C@@H]2CSSC[C@H](NC(=O)[C@@H](NC(=O)CNC(=O)[C@@H](N)CO)CSSC[C@@H](C(N)=O)NC1=O)C(=O)N[C@@H](C)C(=O)N[C@@H](CO)C(=O)N[C@@H](CC(N)=O)C(=O)N1CCC[C@H]1C(=O)N[C@@H](C)C(=O)N2` [rLsIA [∇A5]] (H-SGCCASNPACRVNNPNIC-NH2; disulfide 3-18, 4-10) it was 57 ± 14.7 µM.
